Experimental data: US11965039B2, “Compstatin analogues and their medical uses” (priority 2018, dated 2024)
Starred links: 1 amine or outer side, 2 acyl side, 3 side chain; linkers in the order of their positions; H or OH if unused. Positions of bridges follow the written chain, without caps; N, C: chain ends. Non-standard residues stand in square brackets, D forms with d. Residues, ends and D or L forms follow the SMILES beside them. Groups on a side chain read outwards from the residue. *: point of attachment. (Piperazine-1-yl)‑acetyl = piperazin-1-yl-acetyl spacer, O=C(CN1CCN([*:1])CC1)[*:2]; Trp(1-Me) = Cn1cc(C[C@H](N)C(=O)O)c2ccccc21; C18 diacid = O=C(O)CCCCCCCCCCCCCCCCC(=O)*; C16 diacid = O=C(O)CCCCCCCCCCCCCCC(=O)*; γGlu = O=C(O)[C@H](CCC(=O)[*:2])N[*:1]; AEEA = NCCOCCOCC(=O)O; Sar = CNCC(=O)O

Assays:
[1] = Solubility test at 10 mg/mL (visual inspection and light scattering); format: physicochemical; details: for Solubility, Condition 1: Acetate pH 4; for Solubility, Condition 2: Acetate pH 5; for Solubility, Condition 3: Phosphate pH 6; for Solubility, Condition 4: Phosphate pH 7; for Solubility, Condition 5: Phosphate pH 7.5
[2] = system: classical complement pathway; assay: In vitro haemolysis assay (inhibition of classical complement pathway); format: cell-based, human; details: human serum, sensitized sheep red blood cells; Table 3, given as upper bounds; read-out: IC50, inhibition of hemolysis
Summary of the method: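 Compound dilutions preincubated 15 min at room temperature with diluted human serum (titrated per batch for 70-90% maximal haemolysis), then antibody-sensitized sheep RBC (10^7/well) added for 30 min at 37 °C in Tris/casein buffer, pH 7.4. Stopped with EDTA; haemolysis read at 405 nm; IC50 by 4PL fit.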

[3] = target: Human C3 (Complement tech cat #A113c) (human, UniProt P01024 23-1663); assay: cell-based or functional assay
Chain of Human C3 (Complement tech cat #A113c) (P01024 23-1663 limits assumed): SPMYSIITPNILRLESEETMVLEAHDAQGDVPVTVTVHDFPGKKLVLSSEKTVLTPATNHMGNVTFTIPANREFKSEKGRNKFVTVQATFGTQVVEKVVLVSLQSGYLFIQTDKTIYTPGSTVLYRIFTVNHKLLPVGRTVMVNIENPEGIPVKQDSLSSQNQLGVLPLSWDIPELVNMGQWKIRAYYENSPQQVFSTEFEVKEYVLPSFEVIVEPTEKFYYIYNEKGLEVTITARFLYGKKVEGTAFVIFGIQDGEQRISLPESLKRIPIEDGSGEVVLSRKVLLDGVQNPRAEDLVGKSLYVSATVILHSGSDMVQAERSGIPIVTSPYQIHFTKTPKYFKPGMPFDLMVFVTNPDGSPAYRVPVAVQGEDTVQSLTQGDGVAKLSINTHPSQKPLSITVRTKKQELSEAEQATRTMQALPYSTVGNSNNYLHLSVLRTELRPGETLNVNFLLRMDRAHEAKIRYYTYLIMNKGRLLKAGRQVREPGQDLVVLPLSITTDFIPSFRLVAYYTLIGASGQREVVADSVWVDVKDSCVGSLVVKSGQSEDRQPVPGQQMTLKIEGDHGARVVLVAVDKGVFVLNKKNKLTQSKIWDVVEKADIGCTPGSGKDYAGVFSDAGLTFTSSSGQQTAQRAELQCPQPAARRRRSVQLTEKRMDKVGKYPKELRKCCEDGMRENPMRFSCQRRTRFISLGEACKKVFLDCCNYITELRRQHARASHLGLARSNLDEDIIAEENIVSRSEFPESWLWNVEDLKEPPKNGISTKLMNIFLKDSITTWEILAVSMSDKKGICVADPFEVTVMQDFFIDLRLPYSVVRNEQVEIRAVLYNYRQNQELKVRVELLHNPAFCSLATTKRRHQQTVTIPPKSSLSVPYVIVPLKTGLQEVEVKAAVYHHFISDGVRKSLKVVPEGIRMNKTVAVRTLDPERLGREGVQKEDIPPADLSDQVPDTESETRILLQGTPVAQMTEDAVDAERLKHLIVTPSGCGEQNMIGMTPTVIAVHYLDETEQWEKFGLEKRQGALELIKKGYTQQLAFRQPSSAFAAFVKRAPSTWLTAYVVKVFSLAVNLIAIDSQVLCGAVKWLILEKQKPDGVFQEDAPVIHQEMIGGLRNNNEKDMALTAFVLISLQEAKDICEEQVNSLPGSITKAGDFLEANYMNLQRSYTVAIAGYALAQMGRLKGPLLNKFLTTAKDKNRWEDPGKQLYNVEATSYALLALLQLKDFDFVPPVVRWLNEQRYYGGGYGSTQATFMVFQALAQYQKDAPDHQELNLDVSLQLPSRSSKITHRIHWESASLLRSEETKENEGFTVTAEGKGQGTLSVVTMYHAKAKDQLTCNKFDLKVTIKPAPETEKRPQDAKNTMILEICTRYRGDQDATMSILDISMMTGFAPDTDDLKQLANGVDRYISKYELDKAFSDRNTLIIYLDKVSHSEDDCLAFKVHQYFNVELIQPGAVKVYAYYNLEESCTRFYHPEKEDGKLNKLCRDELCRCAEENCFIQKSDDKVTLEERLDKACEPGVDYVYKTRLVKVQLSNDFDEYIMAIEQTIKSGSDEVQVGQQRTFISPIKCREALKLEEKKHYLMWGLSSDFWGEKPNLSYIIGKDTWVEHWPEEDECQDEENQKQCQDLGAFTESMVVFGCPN

Molecule | Solubility, Condition 1 [1] | Solubility, Condition 2 [1] | Solubility, Condition 3 [1] | Solubility, Condition 4 [1] | Solubility, Condition 5 [1] | IC50 [2] | inhibition of hemolysis IC50 [3]
CC[C@H](C)[C@@H]1NC(=O)[C@@H](NC(=O)[C@H](Cc2ccc(O)cc2)NC(=O)[C@H](CCC(=O)O)NC(=O)[C@H](CO)NC(=O)CNC(=O)[C@H](CCC(=O)O)NC(=O)CCCCCCCCCCCCCCCCC(=O)O)CSSC[C@@H](C(=O)N(C)CC(=O)N[C@@H](CCC(=O)O)C(N)=O)NC(=O)[C@H](CCCNC(=N)N)NC(=O)[C@H](Cc2c[nH]cn2)NC(=O)[C@H](CCC(=O)O)NC(=O)CNC(=O)[C@H](Cc2c[nH]c3ccccc23)NC(=O)[C@H](CC(=O)O)NC(=O)[C@H](CCC(N)=O)NC(=O)[C@H](Cc2cn(C)c3ccccc23)NC1=O [Compound 108] ({C18 diacid}-EGSEYCI[Trp(1-Me)]QDWGEHRC[Sar]E-NH2; disulfide 6-16) | − (“−” denotes lack of solubility at the given condition, as UV absorbance at 340 nm exceeds 0.1 AU and/or it is visibly turbid or contains particles) | − (“−” denotes lack of solubility at the given condition, as UV absorbance at 340 nm exceeds 0.1 AU and/or it is visibly turbid or contains particles) | + (“+” denotes solubility at the given condition, as determined by UV absorbance being less than 0.1 AU at 340 nm and the sample being clear when manually inspected) | + (“+” denotes solubility at the given condition, as determined by UV absorbance being less than 0.1 AU at 340 nm and the sample being clear when manually inspected) | + (“+” denotes solubility at the given condition, as determined by UV absorbance being less than 0.1 AU at 340 nm and the sample being clear when manually inspected) | < 500 nM | –
CC[C@H](C)[C@@H]1NC(=O)[C@@H](NC(=O)[C@H](Cc2ccc(O)cc2)NC(=O)[C@H](C)NC(=O)[C@H](CO)NC(=O)CNC(=O)[C@H](CCC(=O)O)NC(C)=O)CSSC[C@@H](C(=O)N(C)CC(=O)N[C@@H](CCC(=O)O)C(=O)NCC(=O)N[C@@H](CCC(=O)O)C(=O)N[C@@H](CCCCNC(=O)CC[C@H](NC(=O)CNC(=O)CC[C@H](NC(=O)CCCCCCCCCCCCCCCCC(=O)O)C(=O)O)C(=O)O)C(N)=O)NC(=O)[C@H](CCCNC(=N)N)NC(=O)[C@H](Cc2c[nH]cn2)NC(=O)[C@H](CCC(=O)O)NC(=O)CNC(=O)[C@H](Cc2c[nH]c3ccccc23)NC(=O)[C@H](CC(=O)O)NC(=O)[C@H](CCC(N)=O)NC(=O)[C@H](Cc2cn(C)c3ccccc23)NC1=O [Compound 109] (Ac-EGSAYCI[Trp(1-Me)]QDWGEHRC[Sar]EGEK([γGlu-Gly-γGlu-C18 diacid])-NH2; disulfide 6-16) | − (“−” denotes lack of solubility at the given condition, as UV absorbance at 340 nm exceeds 0.1 AU and/or it is visibly turbid or contains particles) | + (“+” denotes solubility at the given condition, as determined by UV absorbance being less than 0.1 AU at 340 nm and the sample being clear when manually inspected) | + (“+” denotes solubility at the given condition, as determined by UV absorbance being less than 0.1 AU at 340 nm and the sample being clear when manually inspected) | + (“+” denotes solubility at the given condition, as determined by UV absorbance being less than 0.1 AU at 340 nm and the sample being clear when manually inspected) | + (“+” denotes solubility at the given condition, as determined by UV absorbance being less than 0.1 AU at 340 nm and the sample being clear when manually inspected) | < 250 nM | –
CC[C@H](C)[C@@H]1NC(=O)[C@@H](NC(=O)[C@H](Cc2ccc(O)cc2)NC(=O)[C@H](CCC(=O)O)NC(=O)[C@H](CO)NC(C)=O)CSSC[C@@H](C(=O)N(C)CC(=O)N[C@@H](CCC(=O)O)C(=O)NCC(=O)N[C@@H](CCC(=O)O)C(=O)N[C@@H](CCCCNC(=O)CC[C@H](NC(=O)CNC(=O)CC[C@H](NC(=O)CCCCCCCCCCCCCCCCC(=O)O)C(=O)O)C(=O)O)C(N)=O)NC(=O)[C@H](CCCNC(=N)N)NC(=O)[C@H](Cc2c[nH]cn2)NC(=O)[C@H](CCC(=O)O)NC(=O)CNC(=O)[C@H](Cc2c[nH]c3ccccc23)NC(=O)[C@H](CC(=O)O)NC(=O)[C@H](CCC(N)=O)NC(=O)[C@H](Cc2cn(C)c3ccccc23)NC1=O [Compound 114] (Ac-SEYCI[Trp(1-Me)]QDWGEHRC[Sar]EGEK([γGlu-Gly-γGlu-C18 diacid])-NH2; disulfide 4-14) | + (“+” denotes solubility at the given condition, as determined by UV absorbance being less than 0.1 AU at 340 nm and the sample being clear when manually inspected) | + (“+” denotes solubility at the given condition, as determined by UV absorbance being less than 0.1 AU at 340 nm and the sample being clear when manually inspected) | + (“+” denotes solubility at the given condition, as determined by UV absorbance being less than 0.1 AU at 340 nm and the sample being clear when manually inspected) | + (“+” denotes solubility at the given condition, as determined by UV absorbance being less than 0.1 AU at 340 nm and the sample being clear when manually inspected) | + (“+” denotes solubility at the given condition, as determined by UV absorbance being less than 0.1 AU at 340 nm and the sample being clear when manually inspected) | < 500 nM | –
CC[C@H](C)[C@@H]1NC(=O)[C@@H](NC(=O)[C@H](Cc2ccc(O)cc2)NC(=O)[C@H](CCC(=O)O)NC(=O)[C@H](CO)NC(C)=O)CSSC[C@@H](C(=O)N(C)CC(=O)N[C@@H](CCC(=O)O)C(=O)NCC(=O)N[C@@H](CCCCN)C(=O)N[C@@H](CCCCNC(=O)CC[C@H](NC(=O)CNC(=O)CC[C@H](NC(=O)CCCCCCCCCCCCCCCCC(=O)O)C(=O)O)C(=O)O)C(N)=O)NC(=O)[C@H](CCCNC(=N)N)NC(=O)[C@H](Cc2c[nH]cn2)NC(=O)[C@H](CCC(=O)O)NC(=O)CNC(=O)[C@H](Cc2c[nH]c3ccccc23)NC(=O)[C@H](CC(=O)O)NC(=O)[C@H](CCC(N)=O)NC(=O)[C@H](Cc2cn(C)c3ccccc23)NC1=O [Compound 115] (Ac-SEYCI[Trp(1-Me)]QDWGEHRC[Sar]EGKK([γGlu-Gly-γGlu-C18 diacid])-NH2; disulfide 4-14) | − (“−” denotes lack of solubility at the given condition, as UV absorbance at 340 nm exceeds 0.1 AU and/or it is visibly turbid or contains particles) | − (“−” denotes lack of solubility at the given condition, as UV absorbance at 340 nm exceeds 0.1 AU and/or it is visibly turbid or contains particles) | + (“+” denotes solubility at the given condition, as determined by UV absorbance being less than 0.1 AU at 340 nm and the sample being clear when manually inspected) | + (“+” denotes solubility at the given condition, as determined by UV absorbance being less than 0.1 AU at 340 nm and the sample being clear when manually inspected) | + (“+” denotes solubility at the given condition, as determined by UV absorbance being less than 0.1 AU at 340 nm and the sample being clear when manually inspected) | < 250 nM | –
Ac-ICIWQDWGEHRCTEGK([AEEA-AEEA-γGlu-C18 diacid])-NH2 (disulfide 2-12; SMILES CC[C@H](C)[C@H](NC(C)=O)C(=O)N[C@H]1CSSC[C@@H](C(=O)N[C@H](C(=O)N[C@@H](CCC(=O)O)C(=O)NCC(=O)N[C@@H](CCCCNC(=O)COCCOCCNC(=O)COCCOCCNC(=O)CC[C@H](NC(=O)CCCCCCCCCCCCCCCCC(=O)O)C(=O)O)C(N)=O)[C@@H](C)O)NC(=O)[C@H](CCCNC(=N)N)NC(=O)[C@H](Cc2c[nH]cn2)NC(=O)[C@H](CCC(=O)O)NC(=O)CNC(=O)[C@H](Cc2c[nH]c3ccccc23)NC(=O)[C@H](CC(=O)O)NC(=O)[C@H](CCC(N)=O)NC(=O)[C@H](Cc2c[nH]c3ccccc23)NC(=O)[C@H]([C@@H](C)CC)NC1=O) [Compound 96] | – | – | – | – | – | – | < 1000 nM
Ac-ICIWQDWGEHRCTEGEK([AEEA-AEEA-γGlu-C16 diacid])-NH2 (disulfide 2-12; SMILES CC[C@H](C)[C@H](NC(C)=O)C(=O)N[C@H]1CSSC[C@@H](C(=O)N[C@H](C(=O)N[C@@H](CCC(=O)O)C(=O)NCC(=O)N[C@@H](CCC(=O)O)C(=O)N[C@@H](CCCCNC(=O)COCCOCCNC(=O)COCCOCCNC(=O)CC[C@H](NC(=O)CCCCCCCCCCCCCCC(=O)O)C(=O)O)C(N)=O)[C@@H](C)O)NC(=O)[C@H](CCCNC(=N)N)NC(=O)[C@H](Cc2c[nH]cn2)NC(=O)[C@H](CCC(=O)O)NC(=O)CNC(=O)[C@H](Cc2c[nH]c3ccccc23)NC(=O)[C@H](CC(=O)O)NC(=O)[C@H](CCC(N)=O)NC(=O)[C@H](Cc2c[nH]c3ccccc23)NC(=O)[C@H]([C@@H](C)CC)NC1=O) [Compound 94] | – | – | – | – | – | – | < 500 nM
Ac-ICIWQDWGEHRCTEGEK([AEEA-AEEA-γGlu-C18 diacid])-NH2 (disulfide 2-12; SMILES CC[C@H](C)[C@H](NC(C)=O)C(=O)N[C@H]1CSSC[C@@H](C(=O)N[C@H](C(=O)N[C@@H](CCC(=O)O)C(=O)NCC(=O)N[C@@H](CCC(=O)O)C(=O)N[C@@H](CCCCNC(=O)COCCOCCNC(=O)COCCOCCNC(=O)CC[C@H](NC(=O)CCCCCCCCCCCCCCCCC(=O)O)C(=O)O)C(N)=O)[C@@H](C)O)NC(=O)[C@H](CCCNC(=N)N)NC(=O)[C@H](Cc2c[nH]cn2)NC(=O)[C@H](CCC(=O)O)NC(=O)CNC(=O)[C@H](Cc2c[nH]c3ccccc23)NC(=O)[C@H](CC(=O)O)NC(=O)[C@H](CCC(N)=O)NC(=O)[C@H](Cc2c[nH]c3ccccc23)NC(=O)[C@H]([C@@H](C)CC)NC1=O) [Compound 97] | – | – | – | – | – | – | < 250 nM
Ac-ICIWQDWGEHRCTEGK([AEEA-AEEA-(Piperazine-1-yl)‑acetyl-C16 diacid])-NH2 (disulfide 2-12) [Compound 95] | – | – | – | – | – | – | < 500 nM
